The source of these data is patent EP2815749A1, “Solid form of 4-amino-2-(2,6-dioxopiperidine-3-yl)isoindoline-1,3-dione having specified X-ray diffraction pattern” (IP Gesellschaft für Management mbH, priority 2013, dated 2014).

Structures can show the parent of a compound that is named as a salt. Where two headings read alike, the source gives them in different places. A value given as a limit tells only on which side of the number the result lay.

In general, solubility refers to how much of the substance goes into solution per volume.

The conditions of data set [1]: water; listed as free base.
Protocol: Hygroscopicity: Sorption/desorption isotherms were measured using the VT1100 humidity microbalance (VTI Corporation, Hialeah, FL, USA). Measurements were carried out at 25°C. Samples were dried under N2 flow at 25°C. […] Concentration in supernatant was measured by gravimetry for organic solvents and by HPLC from aqueous solvents and propylene glycol.
A short description of the next data set: physchem. The settings on record: thermodynamic from solid.
A short description of data set [2]: Hygroscopicity of forms of Compound of formula (V) (DVS). Type of data set: physicochemical. The settings on record: between 0% and 90% relative humidity; 25°C. As for the experimental part: Differential Scanning Calorimetry (DSC): DSC analyses were performed on a TA instrument Q2000 Differential Scanning Calorimeter. Indium was used as the calibration standard. Approximately 2-5 mg of sample was placed into a DSC pan. The sample was heated under nitrogen at a rate of 10°C/min, up to a final temperature of 350°C. Melting points were reported as the extrapolated onset temperatures. Thermogravimetric Analysis (TGA): TGA analyses were performed on a TA instrument Q5000 Thermogravimetric Analyzer. Calcium oxalate was used for a performance check. Approximately 2-10 mg of accurately weighed sample was placed on a pan and loaded into the TGA furnace. The sample was heated under nitrogen at a rate of 10°C/min, up to a final temperature of 300°C. Attenuated Total Reflection Fourier-Transform Infrared Analysis (ATR-FTIR): FTIR analyses were performed on the samples "as is" using an attenuated total reflection (ATR) attachment on a Nicolet 6700 FTIR spectrometer. After a background of ambient lab conditions was obtained, samples were placed on the ATR, compressed with the anvil, and spectrum acquired. Miniature Scanning Electron Microscope (Mini SEM) Morphology analysis of the samples was carried out on an Even Mini SEM. Small amounts of samples were dispersed on a sample holder, and then coating with gold viewed with 200x and 1000x magnification. Dynamic Vapor Sorption (DVS) Hygroscopicity was determined on a Surface Measurement Systems DVS. Typically a sample size of 5-30 mg was loaded into the DVS instrument sample pan and the sample was analyzed on a DVS automated sorption analyzer at 25°C. The relative humidity was increased from 0 % to 90 %RH at 10 %RH step. The relative humidity was then decreased in a similar manner to accomplish a full adsorption/desorption cycle. The entire scope of this invention is not limited by the specific examples described herein, but is more readily understood with reference to the appended claims.

Data set [3] can be described thus: Equilibration and form conversion experiments of Compound of formula (V). Type of data set: physicochemical. The settings on record: form conversion studies. The method, then: Equilibration: Equilibration studies using single, binary and ternary combinations of batch solvents (water, acetone, and acetonitrile) were investigated to mimic key steps in manufacturing 3-(4-nitro-1-oxoisoindolin-2-yl)piperidine-2,6-dione. Materials of 3-(4-nitro-1-oxoisoindolin-2-yl)piperidine-2,6-dione and solvent or solvent mixtures were added to a glass vial to achieve free-flowing slurry and allowed to equilibrate at the specified temperature. After equilibration for 8 days, the solid phase was separated via filtration. The solid phase was then dried under air and analyzed by XRPD. List of Experimental Conditions for Equilibration:
A total of four batches of 3-(4-nitro-1-oxoisoindolin-2-yl)piperidine-2,6-dione were characterized by XRPD, DSC, TGA, ATR-FTIR and DVS, as described in section 6.5. The solid form represented by the batch 1 was designated as Form A ({drug5b}); the solid form represented by the batch 4 was designated as Form B ({drug5c}); the batches 2 and 3 were determined to be mixtures of Forms A and B, with Form B ({drug5c}) dominating the patterns. The equilibration experiments were performed using batches 2, 3 and 4, and the results are described in Table 2. Results for Equilibration Experiments:
Results from Additional Form conversion Experiments: […]

Test in data set [4]: as above
Type of data set: physicochemical.

Data set [5] is described as follows: Desolvation of solvate forms of Compound (VII). Type of data set: physicochemical. The method, then: Polymorph screening: A polymorph screen was conducted in the methylethyl ketone (MEK)/ water solvent systems, as well as in the acetonitrile (ACN), ACN/water and isopropyl acetate solvent systems. Polymorph screening techniques included crash cooling, solvent evaporation, antisolvent addition, and slurry experiments. Slurry experiments were performed on an IKA RCT hot plate with magnetic stirring set to 710 rpm. The temperature was controlled with an IKA ETS-D5 thermocouple. Solvent volumes were measured and transferred with Gibson Pipetteman volumetric pipettes. New forms that were identified as solvates were subjected to desolvation under two potential conditions: (1) drying in a vacuum oven at 40°C and (2) sitting undisturbed under ambient conditions in a fume hood. Physical characterization of all forms proceeded by X-ray powder diffraction (XRPD) and thermogravimetric analysis (TGA).
Experiment 6: Desolvation: New forms of Compound (VII) obtained in the polymorph screen suspected of being solvates were subjected to further form investigation through attempted desolvation. Forms D, E, F, G, H, I, J, K, L and Hydrate A were left to stand open to the atmosphere under ambient conditions and or were placed in a vacuum oven. […] Forms D and K produced new crystalline XRPD patterns following desolvation. […] In some embodiments, Form R ({drug7p}) is characterized by one or more peaks in an XRPD spectrum selected from the peaks listed in Table 20. Form R ({drug7p}) Peak List:
In some embodiments, Form S ({drug7q}) is characterized by one or more peaks in an XRPDspectrum selected from the peaks listed in Table 21.

Data set [6] can be described thus: Salt screening and crystalline salt characterization of Compound (VI). The following applies: for Hygroscopicity: ambient temperature and relative humidity conditions.
Protocol: The screening examined acid type, acid level (equivalents), and/or type of crystallization solvent. Each plate contained 96 well plates (8 rows of 12 columns per plate). […] The solution (12.5 mL) was transferred to 24 vials. To each vial was added 0.25 M EtOH stock solutions of the following acids:
The content of each vial was transferred to 12 crystallization wells and evaporated to dryness. Upon evaporation, each well was charged with 100 µl of solvent using a robotic liquid handler. The following crystallization solvents were tested: methyl isobutyl ketone (MIBK), ethyl acetate, toluene, THF, acetonitrile, acetone, isopropanol, ethanol, methanol, 1,2-dichloroethylene, isopropanol/water (50:50), and water. Next, the plates were sealed with Teflon septa and subjected to temperature cycling. […] After the heating/cooling cycle, the contents of the wells were characterized by birefringent imaging. Perceived crystalline hits were further characterized by PXRD analysis.

For the molecule `N#Cc1ccc([C@H]2CCc3cncn32)c(F)c1` [Compound (III), 4-(R)-(6,7-Dihydro-5H-pyrrolo[1,2-c]imidazol-5-yl)-3-fluoro-benzonitrile], the “Solubility in water at the 0.1% target concentration” value in data set [1] is reported as “largely insoluble”. For the same molecule, the Moisture gain by setting is: (r.h. 0%) 0.0%; (r.h. 5%) 0.0%; (r.h. 25%, listed as free base) 0.1%; (r.h. 50%, listed as free base) 0.2%; (r.h. 75%, listed as free base) 0.3%; (r.h. 85%, listed as free base) 0.5%. Where the note is “r.h. 95%, listed as free base”, this molecule returned a Moisture gain of 1.0%. Further, the solubility in “physchem” (acetone, 25 °C, organic solvent or mixture) is more than 50 mg/mL; in the data set “physchem” (aqueous solvent, pH 1, 25 °C, pH 1, simulated gastric fluid, pH 1), more than 50 mg/mL; in “physchem” (ethanol, 25 °C, organic solvent or mixture), more than 50 mg/mL; in the data set “physchem” (ethyl acetate, 25 °C, organic solvent or mixture) it was more than 50 mg/mL.
In data set [2], `O=C1CCC(N2Cc3c(cccc3[N+](=O)[O-])C2=O)C(=O)N1` (centres unmarked) [Form A ({drug5b}), 3-(4-nitro-1-oxoisoindolin-2-yl)piperidine-2,6-dione] had a total mass change of 0.42%. Besides, in data set [3], the “Form conversion to other forms” value is “no conversion”.
With `NC1(C(=O)N[C@@H](CCO)c2ccc(Cl)cc2)CCN(c2ncnc3[nH]ccc23)CC1` [Form B, (S)-4-amino-N-(1-(4-chlorophenyl)-3-hydroxypropyl)-1-(7H-pyrrolo[2,3-d]pyrimidin-4-yl)piperidine-4-carboxamide], in data set [4] (Heated to 220 °C for 4 hours), the “XRPD Result after form conversion experiment” value (“XRPD Result” for short) was “Form A”.
Take `O=C1CCC(N2Cc3c(cccc3[N+](=O)[O-])C2=O)C(=O)N1` (centres unmarked) [Form C ({drug5d}), 3-(4-nitro-1-oxoisoindolin-2-yl)piperidine-2,6-dione]: the total mass change in data set [2] was found to be 0.43%. Also, the “XRPD Result” value in data set [4] (Heated to 220 °C for 4 hours) was “partially converts to Form A”. The Form conversion result in data set [4] (ambient temperature, NMP/acetone/water (1:2.5:2.5), time not stated) is “converts to Form A”.
For the molecule `NC1(C(=O)N[C@@H](CCO)c2ccc(Cl)cc2)CCN(c2ncnc3[nH]ccc23)CC1` [Form C, (S)-4-amino-N-(1-(4-chlorophenyl)-3-hydroxypropyl)-1-(7H-pyrrolo[2,3-d]pyrimidin-4-yl)piperidine-4-carboxamide], the “XRPD Result” value in data set [4] (Heated to 220 °C for 4 hours), in data set [4] (Slurry in NMP/Acetone/water at ambient for 5 days) and in data set [4] (Slurry in NMP/Acetone/water at ambient for 10 days) was “Form A+C” each time.
For the molecule `CC(C)(C)c1cc(C(C)(C)C)c(NC(=O)c2c[nH]c3ccccc3c2=O)cc1O` [Form D ({drug7b}), N-[2,4-bis(1,1-dimethylethyl)-5-hydroxyphenyl]-1,4-dihydro-4-oxoquinoline-3-carboxamide], the “XRPD pattern after attempted desolvation” value in data set [5] (ambient conditions and vacuum oven for approximately 1 month) is recorded as “converted to a new crystalline form of Compound (VII) designated Form R”.
Consider `CC(C)(C)c1cc(C(C)(C)C)c(NC(=O)c2c[nH]c3ccccc3c2=O)cc1O` [Form E ({drug7c}), N-[2,4-bis(1,1-dimethylethyl)-5-hydroxyphenyl]-1,4-dihydro-4-oxoquinoline-3-carboxamide], for which the “XRPD pattern after attempted desolvation” value in data set [5] (standing under ambient conditions and sitting in the vacuum oven) is recorded as “same XRPD patterns”.
In the case of `CC(C)(C)c1cc(C(C)(C)C)c(NC(=O)c2c[nH]c3ccccc3c2=O)cc1O` [Form G ({drug7e}), N-[2,4-bis(1,1-dimethylethyl)-5-hydroxyphenyl]-1,4-dihydro-4-oxoquinoline-3-carboxamide], the “XRPD pattern after attempted desolvation” value in data set [5] (vacuum oven for one month) was “became x-ray amorphous”.
For `CC(C)(C)c1cc(C(C)(C)C)c(NC(=O)c2c[nH]c3ccccc3c2=O)cc1O` [Form H ({drug7f}), N-[2,4-bis(1,1-dimethylethyl)-5-hydroxyphenyl]-1,4-dihydro-4-oxoquinoline-3-carboxamide], the “XRPD pattern after attempted desolvation” value is on record as “same Form H” in data set [5] (ambient conditions for one month) and “converted to a semi-crystalline form” in data set [5] (vacuum oven for one month).
Turning to `CC(C)(C)c1cc(C(C)(C)C)c(NC(=O)c2c[nH]c3ccccc3c2=O)cc1O` [Form K ({drug7i}), N-[2,4-bis(1,1-dimethylethyl)-5-hydroxyphenyl]-1,4-dihydro-4-oxoquinoline-3-carboxamide], the “XRPD pattern after attempted desolvation” value in data set [5] (ambient conditions and vacuum oven for 2 months) is “converted to a new crystalline form of Compound (VII) designated Form S”.
As to `CC(C)(C)c1cc(C(C)(C)C)c(NC(=O)c2c[nH]c3ccccc3c2=O)cc1O` [Form L ({drug7j}), N-[2,4-bis(1,1-dimethylethyl)-5-hydroxyphenyl]-1,4-dihydro-4-oxoquinoline-3-carboxamide], the “XRPD pattern after attempted desolvation” value was “same Form L” in data set [5] (ambient conditions for two weeks) and “converted to x-ray amorphous” in data set [5] (vacuum oven for 24 hours).
`N#Cc1ccc([C@H]2CCc3cncn32)c(F)c1` [HCl, 4-(R)-(6,7-dihydro-5H-pyrrolo[1,2-c]imidazol-5-yl)-3-fluoro-benzonitrile, reference compound]: the Moisture gain (r.h. 25%) is listed as 0.5%; the Moisture gain (r.h. 50%) was 0.2%; the Moisture gain (r.h. 75%) is on record as 0.2%; the Moisture gain (r.h. 85%) amounted to 3.3%; the Moisture gain (r.h. 95%) was found to be 23.6%.
Regarding `Cl` [Hydrochloric acid], the Hygroscopicity result in data set [6] is “Crystalline salt; crystals were hygroscopic at ambient temperatures and relative humidity conditions; crystalline salt samples included multiple hydration states and multiple crystalline forms. Solid state NMR indicated that prepared samples contained mixture of crystalline phases”; in data set [6] (listed as hydrochloric acid salt) it was “hygroscopic”.
Citric acid: the Hygroscopicity result in data set [6] is “Crystalline salt; hygroscopic at ambient temperature and relative humidity conditions. PXRD patterns of slurry and dried material did not match”; in data set [6] (listed as citric acid salt) it was “hygroscopic”.
Fumaric acid: the “water content of samples” value in data set [6] (>25% relative humidity) is on record as approximately 6 wt. %. The Hygroscopicity entry in data set [6] is “hygroscopic at ambient temperature and relative humidity conditions”; in data set [6] (listed as fumaric acid salt), “hygroscopic”.
